From PMC7698926 (International Journal of Molecular Sciences, 2020) come the findings set out here.

In brackets after ≈: the same amount, converted by molar mass. Several values for one entry are separate records, joined by “and”; a condition that tells them apart may be missing. Equal entries are not always repeated. Where two headings read alike, the source gives them in different places. Where a SMILES comes first, the peptide text is derived from it.

The subject of data set [1] is X. oryzae pv. oryzae. Format: cell-based, Xanthomonas oryzae pv. oryzae. Conditions: peptide at MIC, 2 h, 28 °C; X. oryzae pv. oryzae exponential phase; flow cytometry; control 0.07%. On the technique in general: In flow cytometry, cells or beads pass a laser one at a time.
Data set [2] deals with X. oryzae pv. oryzae. Format: cell-based, Xanthomonas oryzae pv. oryzae. Particulars: peptide at MIC, 2 h, 28 °C; PBS control.
For data set [3], the system named is R. solanacearum. Format: cell-based, Ralstonia solanacearum. Conditions: R. solanacearum (G-); extracellular peptide from B. subtilis strain; mean ± SD, three independent experiments; control SCK6-e 0.75 ±0.050.
For data set [4], the system named is X. oryzae pv. oryzae. Also noted: species or system rice. Particulars: control SCK6-e.
In data set [5] the test system is C. michiganensis.
The subject of data set [6] is C. fangii. The experiment in a line: Salt sensitivity assay. Format: cell-based, Clavibacter fangii. Particulars: peptide 1 × MIC, OD600.
Data set [7] concerns C. fangii, X. oryzae pv. oryzae, C. michiganensis, and R. solanacearum. Format: physicochemical. Conditions: heated 30 min at 4 °C, 50 °C, 80 °C and 100 °C; agar diffusion on four indicator bacteria; compared to control SCK6-e.
The test system of data set [8] is C. michiganensis. Format: cell-based, Clavibacter michiganensis subsp.
For data set [9], the system named is X. oryzae pv. oryzae. Format: cell-based, Xanthomonas oryzae pv. oryzae. Conditions: X. oryzae pv. oryzae (G-); extracellular peptide from B. subtilis strain; mean ± SD, three independent experiments; control SCK6-e 0.66 ±0.033.
Data set [10] has as its system C. fangii. Format: cell-based, Clavibacter fangii.
Data set [11] concerns X. oryzae pv. oryzae. Format: cell-based, Xanthomonas oryzae pv. oryzae. Particulars: peptide at MIC; 28 °C, OD600 at 2–24 h; compared with polymyxin B.
Data set [12] relates to X. oryzae pv. oryzae. Format: cell-based, Xanthomonas oryzae pv. oryzae. Conditions: peptide at MIC, 10 μM DCFH-DA, 28 °C, after 30 min, upward trend at 120 min; compared to untreated strain.
Data set [13] concerns C. fangii.
Data set [14] concerns X. oryzae pv. oryzae. Format: cell-based, Xanthomonas oryzae pv. oryzae. Particulars: peptide 1 × MIC, OD600.
Another data set concerns Magnaporthe oryzae. Format: cell-based. Conditions: peptide 260 μg/mL in PDA, 28 °C, 96 h; buffer control.
The subject of data set [15] is R. solanacearum. Conditions: R. solanacearum (Gram-negative); purified peptide; LB medium, 28 °C, 24 h.
In data set [16] the test system is X. oryzae pv. oryzae. Conditions: X. oryzae pv. oryzae (Gram-negative); purified peptide; LB medium, 28 °C, 24 h.
Data set [17] has as its system Gram-negative and Gram-positive bacteria. Conditions: range over C. fangii, R. solanacearum, C. michiganensis, X. oryzae pv oryzae, X. oryzae pv. oryzicola, B. subtilis (168).
For another data set, the system named is X. oryzae pv. oryzicola. Conditions: X. oryzae pv. oryzicola (Gram-negative); purified peptide; LB medium, 28 °C, 24 h.

Turning to `CC[C@H](C)[C@H](NC(=O)[C@H](CO)NC(=O)[C@H](CCCCN)NC(=O)[C@H](CCCNC(=N)N)NC(=O)[C@@H](NC(=O)[C@H](CCC(=O)O)NC(=O)[C@H](Cc1ccc(O)cc1)NC(=O)[C@H](CS)NC(=O)[C@H](Cc1c[nH]cn1)NC(=O)[C@@H](NC(=O)[C@H](Cc1c[nH]cn1)NC(=O)[C@H](CCCCN)NC(=O)[C@H](CCC(=O)O)NC(=O)[C@H](CO)NC(=O)[C@H](CO)NC(=O)[C@@H](NC(=O)[C@H](CS)NC(=O)[C@H](CC(N)=O)NC(=O)[C@H](Cc1ccc(O)cc1)NC(=O)[C@@H](NC(=O)[C@H](Cc1c[nH]cn1)NC(=O)[C@@H](NC(=O)[C@H](Cc1ccc(O)cc1)NC(=O)[C@@H](NC(=O)[C@H](CC(=O)O)NC(=O)[C@@H](NC(=O)[C@@H](N)CC(C)C)C(C)C)[C@@H](C)CC)[C@@H](C)O)C(C)C)[C@@H](C)O)[C@@H](C)O)[C@@H](C)CC)C(=O)N[C@@H](CO)C(=O)O` [OrR214] (H-LVDIYTHVYNCTSSEKHTHCYEIRKSIS-OH), the “PI staining rate (PI uptake)” value in the data set with X. oryzae pv. oryzae [1] is given as about 37.1%. Moreover, the “cell morphology by SEM and TEM” value in the data set on X. oryzae pv. oryzae [2] is given as “severe damage to the cell membrane surface”. Further, the bacteriostatic diameter in the data set with R. solanacearum [3] is recorded as 1.3 ±0.050 cm; in the data set with C. michiganensis [8] it was 1.2 ±0.033 cm; with X. oryzae pv. oryzae [9], 1.3 ±0.058 cm; with C. fangii [10], 1.1 ±0.033 cm. The “necrotic leaf lesion growth on detached rice leaves” value with X. oryzae pv. oryzae [4] (X. oryzae pv. oryzae mixed with peptide, leaf clipping, 28 °C, 7 d) was “decreased necrotic leaf lesion growth”. In addition, in the data set with X. oryzae pv. oryzae [4] (X. oryzae pv. oryzae, 7 d post-inoculation, lesion length), the “incidence of rice leaves” value is on record as “decreased significantly”. Moreover, the MIC – broadly, the least concentration at which growth counts as inhibited – in the data set on C. michiganensis [5] (24 h) is 10.5 µM (≈ 34.9 µg/mL); against C. fangii [13] (24 h) it was 10.7 µM (≈ 35.6 µg/mL); in the data set with B. subtilis (168) (168, 24 h), 8.3 µM (≈ 27.6 µg/mL). Besides, the “antimicrobial activity at 150 mM Na+” value with C. fangii [6] (NaCl 150 mM) and with X. oryzae pv. oryzae [14] (NaCl 150 mM) was “slightly affected” each time. Further, the “antibacterial activity at 50–100 mM Na+” value in the data set with C. fangii [6] (NaCl 50, 100 mM) is reported as “significant bacteriostatic effect”; in the data set with X. oryzae pv. oryzae [14] (NaCl 50, 100 mM), “significant bacteriostatic effect”. The “antimicrobial activity after heating (thermal stability)” value in [7] is reported as “significant activity”. Further, the “time-kill, bacterial growth after peptide treatment” value in the data set on X. oryzae pv. oryzae [11] was “hardly grew after 12 h of treatment”. Besides, in the data set on X. oryzae pv. oryzae [12], the “ROS production, DCFH-DA fluorescence intensity” value is on record as “significantly increased”. The “mycelium growth of Magnaporthe oryzae” value in the data set with Magnaporthe oryzae was “significantly inhibit the mycelium growth”.
On to “LSFCSCIRTNLDGFDQKLQWNPHFY [OrR1135, candidate antimicrobial peptide from the O. rufipogon cDNA library, 25 amino acids]”, for which the bacteriostatic diameter is reported as 1.4 ±0.050 cm in the data set on R. solanacearum [3], 1.2 ±0.033 cm with C. michiganensis [8], 1.2 ±0.11 cm in the data set on X. oryzae pv. oryzae [9] and 1.1 ±0.060 cm in the data set with C. fangii [10].
Regarding `CSCC[C@H](NC(=O)[C@@H](NC(=O)[C@@H](NC(=O)[C@H](CC(N)=O)NC(=O)[C@H](CC(N)=O)NC(=O)[C@H](CC(C)C)NC(=O)[C@H](CCCNC(=N)N)NC(=O)[C@H](CC(C)C)NC(=O)[C@@H](NC(=O)[C@H](CO)NC(=O)[C@H](CO)NC(=O)[C@@H](NC(=O)[C@@H]1CCCN1C(=O)[C@@H](NC(=O)CNC(=O)[C@@H](N)CC(C)C)C(C)C)C(C)C)[C@@H](C)O)[C@@H](C)O)[C@@H](C)O)C(=O)N[C@@H](CC(N)=O)C(=O)N1CCC[C@H]1C(=O)N[C@@H](CS)C(=O)N[C@@H](CC(C)C)C(=O)N1CCC[C@H]1C(=O)N[C@@H](CO)C(=O)O` [OrR935] (H-LGVPVSSTLRLNNTTMNPCLPS-OH), the MIC in the data set on R. solanacearum [15] came to 33 µM (≈ 76.4 µg/mL); against X. oryzae pv. oryzae [16], 44.0 µM (≈ 102 µg/mL); against C. michiganensis [5] (24 h), 34.6 µM (≈ 80.1 µg/mL); in the data set on C. fangii [13] (24 h), 37.7 µM (≈ 87.3 µg/mL); against B. subtilis (168) (168, 24 h) it was 36.1 µM (≈ 83.6 µg/mL); with X. oryzae pv. oryzicola, 31.4 µM (≈ 72.7 µg/mL). Besides, in [17], the “MIC (range over six bacteria)” value is 31.4 to 44.0 µM.
For Polymyxin B [reference compound], the MIC with R. solanacearum [15] was 7.5 µM; in the data set with X. oryzae pv. oryzae [16] it was 5.0 µM; in the data set with C. michiganensis [5], 12.5 µM; in the data set on C. fangii [13] it was 25.0 µM; in the data set with B. subtilis (168) (B. subtilis (168) (Gram-positive), purified peptide, LB medium, 28 °C, 24 h), 15.0 µM; against X. oryzae pv. oryzicola, 10.0 µM. Moreover, the “MIC (range over six bacteria)” value in [17] was 5 to 25 µM and 5.0 to 25.0 µM.
